Data reported in patent US7989642B2, “Process for producing powdered compositions containing highly unsaturated fatty acid esters of ascorbic acid and powdered compositions containing the esters” (Suntory Holdings Limited, priority 2003, dated 2011).

Assay: Test for the stability against oxidation of arachidonic acid moiety (storage at 37° C., humidity 12%, gas chromatography of non-oxidized arachidonic acid)
Format: physicochemical
Conditions: stored at 37° C.
Description: The resulting microcapsulated powder of 6-O-arachidonoyl-ascorbate was left in the air at 37° C. and a humidity of 12% for 30 days to determine the stability of the powder against oxidation (See, Example 4 below). During the 30-day period, samples were taken at predetermined intervals and were hydrolyzed into methyl arachidonate, which in turn was subjected to gas chromatography to determine the amount of non-oxidized arachidonic acid. As shown, the stability of any polysaccharides used was improved by powdering. The increase in the stability against oxidation was particularly significant in gum Arabic and soybean polysaccharide.
240 mg of each powder product (microcapsule) obtained in each example was placed in a flat bottom glass container (1.5 cm inner diameter, 3 cm high). Using an aqueous solution of lithium chloride, the humidity inside the container was maintained at 12% and the powder was stored at 37° C. The cup was taken out at predetermined intervals and the 6-O-arachidonoyl-ascorbate encapsulated in the microcapsules was hydrolyzed, followed by esterification with methyl groups. The amount of non-oxidized arachidonic acid was determined by gas chromatography (GC-14B, manufactured by SHIMADZU CORP.). The samples were analyzed using methyl myristate as an internal standard. […]

| proportion of the arachidonic acid left unoxidized (after 30 days, relative to Day 0) [%] | disappearance of non-oxidized arachidonic acid | Molecule |
| --- | --- | --- |
| 30 | – | 6-O-arachidonoyl-ascorbate |
| – | disappeared in a few hours | CCCCC/C=C\C/C=C\C/C=C\C/C=C\CCCC(=O)O [non-capsulated arachidonic acid, arachidonic acid] |
